Assay results as given in US20160220710A1, “COMPOSITIONS AND METHODS FOR DELIVERING PHARMACEUTICAL AGENTS” (THE REGENTS OF THE UNIVERSITY OF MICHIGAN, priority 2015, published 2016).

Legend:
[1] = tested on: alveolar macrophages (CD11c) and neutrophils (Ly6G); assay: Flow cytometry of alveolar exudate of drug fed mice; type: in vivo; conditions: 8 weeks
Source text: Mice (4 week old, male C57Bl6) were purchased from the Jackson Laboratory (Bar Harbor, Me.) and acclimatized for 1 week in a specific-pathogen-free animal facility. Animal care was provided by the University of Michigan's Unit for Laboratory Animal Medicine (ULAM) and the experimental protocol was approved by the Committee on Use and Care of Animals in accordance with NIH guidelines. An oral diet containing CFZ was fed to mice as previously described (Baik J, et al., Antimicrob. Agents Chemother. 2013; 57:1218-30; Baik J, et al., PLoS One 2012; 7:e47494; Keswani R K, et al., Mol. Pharm. 2015:10). […]
Mice were euthanized as described above and the trachea was surgically exposed and cannulated with an 18G luer stub and the lungs were lavaged to obtain alveolar exudate by instilling calcium- and magnesium-free Dulbecco's PBS (DPBS) containing 0.5 mM EDTA in 1-ml aliquots for a total of 6 ml. […] Viable (using Trypan Blue staining method) and CLDI containing cells were counted using a hemocytometer.
Peritoneal and alveolar lavage was performed as stated before to obtain the respective exudates. […] For CLDI fluorescence signal experiments, cells were pelleted by centrifugation (100×g for 5 min) followed by resuspension in PBS+5% FBS (500 μl). […] These cells also had extremely high side-scatter that were measured as saturated signals. […]

[2] = tested on: F4/80(+) peritoneal macrophages (PMΦ); assay: Flow cytometry of peritoneal exudate of CFZ-treated mice; type: in vivo
Source text: Mice (4 week old, male C57Bl6) were purchased from the Jackson Laboratory (Bar Harbor, Me.) and acclimatized for 1 week in a specific-pathogen-free animal facility. Animal care was provided by the University of Michigan's Unit for Laboratory Animal Medicine (ULAM) and the experimental protocol was approved by the Committee on Use and Care of Animals in accordance with NIH guidelines. An oral diet containing CFZ was fed to mice as previously described (Baik J, et al., Antimicrob. Agents Chemother. 2013; 57:1218-30; Baik J, et al., PLoS One 2012; 7:e47494; Keswani R K, et al., Mol. Pharm. 2015:10). CFZ (C8895; Sigma-Aldrich, St. Louis, Mo., USA) was dissolved in sesame oil (Roland, China, or Shirakiku, Japan) to achieve a concentration of 3 mg/ml, which was mixed with Powdered Lab Diet 5001 (PMI International, Inc., St. Louis, Mo., USA) to produce a 0.03% drug to powdered feed mix. A corresponding amount of sesame oil was mixed with chow for vehicle treatment (control mice). On average, food consumption for a 25 g mouse was 3 g per day, resulting in 10 mg of bioavailable drug/kg per day. For CFZ treatment, the drug diet was administered for 8 weeks followed by regular chow for 8 weeks (washout phase).
Peritoneal lavage was done as previously reported before and after the initiation of CFZ or vehicle treatment (1 week, 2 weeks, 4 weeks, 8 weeks and 16 weeks (8 weeks drug feed+8 weeks washout phase)) (16). Mice were euthanized as described above followed by sterilization of the outer skin with 70% ethanol. A small incision was made along the midline of the abdomen followed by abdominal skin retraction up to the thoracic boundary and the animal extremities to expose the intact peritoneal wall. A smaller incision was then made on the peritoneal wall to expose the cavity. The entire peritoneal cavity was washed with ice-cold sterile PBS+5% FBS (5-10 ml) and collected as peritoneal exudate. The exudate was then centrifuged (100×g for 5 min, 4° C.) and resuspended in 1.5 ml of PBS+5% FBS. Cells were counted using a hemocytometer for viable cells using Trypan Blue and for CLDI-containing cells.
Peritoneal and alveolar lavage was performed as stated before to obtain the respective exudates. Purified Fc block CD16/32 (1 μl) was added for every 100,000 cells for analysis. For CLDI fluorescence signal experiments, cells were pelleted by centrifugation (100×g for 5 min) followed by resuspension in PBS+5% FBS (500 μl). For functional assays, antibodies—anti-F4/80-eFluor 450 (48-4801, Affymetrix eBioscience, San Diego, Calif., USA), anti-CD86-FITC (553691, BD Biosciences, San Jose, Calif., USA), anti-CD206-FITC (141704, BioLegend®, San Diego, Calif., USA), anti-CD11c-eFluor450 (48-0114, Affymetrix eBioscience) and anti-Ly6G-eFluor450 (48-5931, Affymetrix eBioscience) were added to the cell suspension at a loading of 1 μg/100,000 cells (1:10 volumetric ratio) and incubated in the dark (30 min, 4° C.). Following incubation, the samples were diluted with PBS and pelleted by centrifugation (100×g, 5 min). The supernatant was discarded and the pellet was re-suspended in 300 μl of PBS+2% FBS. Just prior to analysis, PI (5 μl per 1×10^6 cells) was added to the cells to assess viability. Sample measurements were done on a MoFlo® Astrios™ EQ. All gating and analysis was done on at least 10,000 live cells (PI(−) cell population) using FlowJo. CLDI(+) cells were gated either using 640 671/30 or 640 795/70. […] These cells also had extremely high side-scatter that were measured as saturated signals. This small sub-population of cells were not considered for evaluation of change of CD206 expression in the peritoneal macrophages.

CC(C)/N=c1\cc2n(-c3ccc(Cl)cc3)c3ccccc3nc-2cc1Nc1ccc(Cl)cc1 [CFZ, 3-(p-chloroanilino)-10-(p-chlorophenyl)-2, 10-dihydro-2-isopropyliminophenazine]
% of CLDI(+) cells that are CD11c(+) [1]: > 99% | % of Ly6G(+) cells detected as CLDI+ [1]: < 2% | % CLDI(+) cells identified as F4/80(+) CD86(+) ([2]; 4 weeks post-drug feeding): ~38% | % CLDI(+) cells identified as F4/80(+) CD206(+) ([2]; 4 weeks post-drug feeding): ~20% | ratiometric CD86 median surface expression in CLDI(+) relative to CLDI(−) ([2]; 4 weeks post-drug feeding): ~1.17 | % of F4/80(+) PMΦ that were CLDI(+) ([2]; 8 weeks of washout): ~25% | ratiometric CD86 median surface expression in CLDI(+) relative to CLDI(−) ([2]; 8 weeks post-drug feeding): 0.95 | % CLDI(+) cells identified as F4/80(+) CD86(+) ([2]; 8 weeks+8 weeks washout): ~70% | % CLDI(+) cells identified as F4/80(+) CD206(+) ([2]; 8 weeks+8 weeks washout): ~81% | CLDI accumulation within F4/80(+) CD86(+) cells ([2]; 8 weeks+8 weeks washout): ~95% | CLDI(+)% as a proportion of F4/80(+) CD206(+) cells ([2]; 8 weeks+8 weeks washout): ~93% | % of F4/80(+) PMΦ that were CLDI(+) ([2]; after 4 weeks of CFZ treatment): ~38% | CLDI accumulation within F4/80(+) CD86(+) cells ([2]; after 4 weeks of CFZ treatment): ~31% | CLDI(+)% as a proportion of F4/80(+) CD206(+) cells ([2]; after 4 weeks of CFZ treatment): ~15% | % of F4/80(+) PMΦ that were CLDI(+) ([2]; after 8 weeks of treatment): ~61% | % of total CLDI(+) cells localized to F4/80(+) peritoneal macrophages ([2]; all measured time points): > 85%
